The results in this text go back to publication PMC8124774, “Tuning Anti-Biofilm Activity of Manganese(II) Complexes: Linking Biological Effectiveness of Heteroaromatic Complexes of Alcohol, Aldehyde, Ketone, and Carboxylic Acid with Structural Effects and Redox Activity” (International Journal of Molecular Sciences, 2021).

“And” between values parts separate entries of the source, which are not always exact repeats. Equal values may be shown once.

Assay [1] relates to Pseudomonas aeruginosa LES B58. As to the kind of experiment: broth microdilution MIC, P. aeruginosa LES B58. In kind it is cell-based. The settings on record: P. aeruginosa LES B58, planktonic cells. Here is the method: (§1) The antimicrobial activities of the heteroaromatic ligands, Mn(II) complexes, and commercially available drug streptomycin were tested against standard bacterial strains: Staphylococcus aureus ATCC 6538P, Escherichia coli ATCC 8739, Pseudomonas aeruginosa PAO1 (biofilm model strain), and Pseudomonas aeruginosa LES B58 (clinical isolate). The P. aeruginosa PAO1 and LES B58 isolates were derived from the International Pseudomonas aeruginosa Reference Panel (http://bccm.belspo.be/about-us/bccm-lmg, accessed on 30 March 2021).
(§2) All bacteria species were cultivated in trypticase soy broth (TSB) medium (Biocorp, Warsaw, Poland) for 18 h at 37 °C with shaking (160 rpm). Overnight cultures of bacteria were diluted 1:100 into fresh TSB medium and then placed in each of the 96 wells of a microtiter transparent plate (Greiner, Monroe, NC, USA). The manganese(II) complexes—[Mn-pyOH-SO4]n, Mn-imCHO-NO3, Mn-imCHO-Cl, Mn-dipyCO-NO3—and the ligands—pyOH, pyCOOH—were prepared by dissolving compounds in distilled water. […] The starting stock solution was of 2-mM concentration.
(§3) The quantitative assay of the antibacterial activity was performed by the broth microdilution method, in 96-well microtiter plates, in order to establish the minimum inhibitory concentration (MIC). To this purpose, serial two-fold dilutions of the compounds ranging between 1 and 0.0625 mM were made. The details of the experiment were presented in our previous paper.
A general note: In broth dilution the organism is exposed to a series of concentrations in liquid medium.

For assay [2], the target named is T1, catalase from the bovine liver (Bos taurus, UniProt P00432).
T1 construct: The catalase from the bovine liver solution; purchased Sigma–Aldrich; host or cells: bovine liver
T1 sequence (P00432 2-527 limits assumed): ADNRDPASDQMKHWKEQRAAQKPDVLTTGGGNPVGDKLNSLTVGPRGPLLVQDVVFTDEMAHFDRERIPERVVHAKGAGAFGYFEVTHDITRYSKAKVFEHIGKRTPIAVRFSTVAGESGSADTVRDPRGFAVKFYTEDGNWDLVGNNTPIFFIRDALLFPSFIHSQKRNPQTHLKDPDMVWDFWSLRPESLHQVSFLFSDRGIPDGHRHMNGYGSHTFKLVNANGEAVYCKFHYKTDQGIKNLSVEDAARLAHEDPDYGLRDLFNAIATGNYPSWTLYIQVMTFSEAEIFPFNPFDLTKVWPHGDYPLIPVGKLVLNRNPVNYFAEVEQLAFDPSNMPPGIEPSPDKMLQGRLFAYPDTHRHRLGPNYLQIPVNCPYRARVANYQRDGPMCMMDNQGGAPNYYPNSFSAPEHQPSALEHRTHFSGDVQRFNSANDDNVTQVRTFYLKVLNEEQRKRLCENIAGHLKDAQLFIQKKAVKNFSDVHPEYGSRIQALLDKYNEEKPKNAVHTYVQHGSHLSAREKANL
As to the kind of experiment: catalase activity in the presence of the Mn(II) complexes (absorbance at 240 nm). The settings on record: 0.5 mM complex, vs catalase alone. It counts as biochemical. The procedure: First, the complexes were incubated with the catalase in the presence of a phosphate buffer, and then hydrogen peroxide was added thereto. To study the effect of the manganese complexes on the activity of CAT, its performance, in the presence of similar concentrations of the Mn complexes (0.5 mM), was investigated. The percentage of absorbance reduction over time was recorded at 240 nm. The positive control was the catalase sample in the absence of the Mn(II) complex. Figure 12 illustrates the effect of the Mn(II) complexes on the catalase activity.
The effect of the manganese complexes on the activity of catalase (CAT) was determined using the spectrophotometric method. The decrease in absorbance due to hydrogen peroxide depletion was recorded at 240 nm by the V-780 UV-Vis/NIR spectrophotometer (Jasco, Easton, MD, USA). The tests were performed in a 50-mM potassium phosphate buffer (PBS) at 37 °C, pH = 7.0. The catalase from the bovine liver solution (Sigma–Aldrich, St. Louis, MO, USA, lyophilized powder, ≥10,000 units/mg protein) was prepared in the PBS buffer as an initial dilution of ~1000 units/mL at 37 °C. The hydrogen peroxide solution, approximately 0.03% (w/w), was prepared by dilution in the PBS buffer to achieve the absorbance close to 1 a.u, and the PBS was used as a blank. The manganese complexes were diluted in the PBS buffer to stock the concentration of 1 mM. The mixture of 500 µL of the hydrogen peroxide, 1 µL of the catalase (final 1U of catalase activity), and 500 µL of the manganese complexes, previously incubated in a water bath at 37 °C, was added to a quartz cuvette (10 mm, 1 mL), closed by a cover, and placed in the spectrophotometer. The absorbance readings were performed in 10-s intervals during the first minute of the incubation time at 37 °C. The results were presented as the dependence on the percentage of the absorbance reduction over time.

Assay [3] concerns Staphylococcus aureus ATCC 6538P. The assay can be described thus: broth microdilution MIC, S. aureus. It counts as cell-based. The conditions noted are these: S. aureus, planktonic cells. Here is the method:
as §1, §2, §3

As a reminder, the MIC is the lowest concentration that inhibits growth of the organism. Low readings indicate a more susceptible organism, high ones a less susceptible organism. Consider `Cc1[nH]cnc1C=O.Cc1[nH]cnc1C=O.O=[N+]([O-])[O-].O=[N+]([O-])[O-].[Mn+2]` [Mn-imCHO-NO3], for which the MIC in assay [1] was > 1 mM and > 399 μg/ml. Further, the “Action on catalase activity” value in assay [2] is given as “promote the catalase activity”.

Consider `O=[N+]([O-])[O-].O=[N+]([O-])[O-].OCc1ccccn1.OCc1ccccn1.[Mn+2]` [Mn-pyOH-NO3], for which the MIC in assay [3] was > 1 mM and > 397 μg/ml; in assay [1], > 1 mM and > 397 μg/ml. In addition, in assay [2], the “Action on catalase activity” value is “promote the catalase activity”.
